Measured values taken from patent US20240261271A1, “APPLICATION OF HYDRONIDONE IN PREPARATION OF DRUG FOR TREATING OR PREVENTING CHRONIC HEPATITIS B WITH LIVER FIBROSIS” (priority 2021, published 2024).

Tested on: ALT (alanine aminotransferase)
Assay: Phase II clinical study: ALT index of liver function
Assay type: in vivo, human
Settings: FAS, after 52 weeks of treatment
Method: This is a randomized, double-blind, placebo-controlled, multicenter, and dose-finding phase II clinical study with foundational treatment. In the clinical trial, three different dose test groups and a placebo control group were set on the basis of the entecavir capsule antiviral treatment, and the planned sample amount of each group was 60 cases, totaling 240 cases. The three dose test groups were 180 mg group, 270 mg group, and 360 mg group, respectively. The proportion of each test group to the control group was 1:1:1:1, and the cases were distributed randomly. […] Negative conversion rate of HBV DNA after treatment between the groups was compared using CMH-λ2 test or Fisher's exact probability method. • 2. Liver tissue elasticity reduction after treatment between the groups was compared using Kruskal-Wallis H test. • 3. […] The recovery rate of the liver function index after treatment between the groups was compared using CMH-λ2 test or Fisher's exact probability method, and the found values of each index between the groups were compared using variance analysis or Kruskal-Wallis H test.

In the case of `Cc1ccc(=O)n(-c2ccc(O)cc2)c1` [hydronidone], the “mean (standard deviation) of variation of the ALT index compared with the baseline” value (180 mg group) is reported as 44.71 (53.50), the “proportion of the subjects with ALT indexes determined to turn normal from abnormal (baseline)” value (180 mg group) is reported as 15 (78.95%) n(%) and the “mean (standard deviation) of variation of the ALT index compared with the baseline” value (270 mg group) is reported as 66.47 (78.13). For the same molecule, the “proportion of the subjects with ALT indexes determined to turn normal from abnormal (baseline)” value (270 mg group) was 18 (85.71%) n(%), the “mean (standard deviation) of variation of the ALT index compared with the baseline” value (360 mg group) was 43.58 (59.87) and the “proportion of the subjects with ALT indexes determined to turn normal from abnormal (baseline)” value (360 mg group) was 16 (88.89%) n(%).
